Experimental data taken from ChEMBL document CHEMBL2203104, “Recent advances in antitubercular natural products” (Eur J Med Chem, 2012).
Values after ≈ are worked out from the molar mass of the structure shown.

Experiments:
[1] = system: Mycobacterium tuberculosis; test: Antimycobacterial activity against Mycobacterium tuberculosis isolate CIBIN/UMF 15:19; type: functional
[2] = system: Mycobacterium tuberculosis; test: Antimycobacterial activity against Mycobacterium tuberculosis H37Rv ATCC 27294; type: functional
[3] = system: Mycobacterium tuberculosis; test: Antimycobacterial activity against Mycobacterium tuberculosis at 128 ug/mL; type: functional; conditions: read-out: GI
[4] = system: Mycobacterium tuberculosis; test: Antimycobacterial activity against Mycobacterium tuberculosis H37Rv; type: functional
[5] = system: Mycobacterium tuberculosis; test: Antimycobacterial activity against Mycobacterium tuberculosis; type: functional
[6] = system: Mycobacterium tuberculosis; test: Antimycobacterial activity against Mycobacterium tuberculosis H242; type: functional
Vero = test: Cytotoxicity against african green monkey Vero cells; type: cell-based; conditions: Chlorocebus sabaeus
[7] = Selectivity index, ratio of IC50 for african green monkey Vero cells to MIC for Mycobacterium tuberculosis H37Ra; type: functional
[8] = system: Mycobacterium tuberculosis; test: Antimycobacterial activity against Mycobacterium tuberculosis H37Ra; type: functional
[9] = Selectivity index, ratio of IC50 for african green monkey Vero cells to MIC for Mycobacterium tuberculosis H37Rv; type: functional
[10] = system: Mycobacterium tuberculosis; test: Antimycobacterial activity against Mycobacterium tuberculosis 90-221387; type: functional
[11] = system: Mycobacterium tuberculosis; test: Antimycobacterial activity against Mycobacterium tuberculosis H37Rv by liquid microdilution method; type: functional
[12] = system: Mycobacterium tuberculosis; test: Antimycobacterial activity against Mycobacterium tuberculosis H37Rv under anaerobic condition; type: functional
[13] = system: Mycobacterium tuberculosis; test: Antimycobacterial activity against Mycobacterium tuberculosis H37Rv under aerobic condition; type: functional
[14] = system: Mycobacterium tuberculosis; test: Antimycobacterial activity against Mycobacterium tuberculosis H37Rv isolate WC 64/02; type: functional
[15] = Selectivity index, ratio of CC50 for lymphocytes to MIC for Mycobacterium tuberculosis H37Rv isolate WC 51/02; type: functional
[16] = Selectivity index, ratio of CC50 for lymphocytes to MIC for Mycobacterium tuberculosis H37Rv isolate WC 64/02; type: functional
[17] = system: Mycobacterium tuberculosis; test: Antimycobacterial activity against Mycobacterium tuberculosis H37Rv isolate WC 51/02; type: functional
[18] = system: Mycobacterium tuberculosis; test: Antimycobacterial activity against Mycobacterium tuberculosis Erdman by microplate alamar blue assay; type: functional
[19] = Mycobacterium tuberculosis, H37Rv, read-out: MIC

## CC(=O)O[C@H]1C[C@]2(C)[C@@H](C(C)C)CC[C@H]2[C@]23C[C@H]2[C@](C)(O)CC[C@]13C [AZORELLANOL]
[1]
  MIC: 12.5 µg/mL (≈ 35.9 µM)
[2]
  MIC: 12.5 µg/mL (≈ 35.9 µM)

## CC(C)[C@H]1CC[C@@H]2[C@]1(C)CC(=O)[C@@]1(C)CC[C@@](C)(O)[C@@H]3C[C@@]231 [AZORELLANONE]
[1]
  MIC: 12.5 µg/mL (≈ 41.1 µM)
[2]
  MIC: 12.5 µg/mL (≈ 41.1 µM)

## C=C(C)[C@H]1CC[C@@H]2C(=O)O[C@H]3[C@@H]2O[C@@]2(O[C@@H]1C(=O)[C@@]1(C)O[C@@H]21)[C@@H]3C(=C)C [BIPINNAPTEROLIDE B]
[3]
  inhibition of growth at 128 µg/mL: 66%

## C[C@@H]1C[C@H](C)C(=O)/C=C/C2[C@@H](O)C3OC4=C(C(=O)O[C@@]42C[C@H]3C)C1=O (stereo in doubt; 208)
[4]
  MIC: 3.6 µM
[5]
  MIC: 8.3 µg/mL

## CCCCCCCC/C=C\CCCCCCCCCCCCCCCC[C@@H](O)C(=O)N[C@@H](CO[C@@H]1O[C@H](CO)[C@H](O)[C@H](O)[C@H]1O)[C@H](O)[C@H](O)CCC/C=C\CCCCCCCCC
[4]; [19]
  MIC: 40 µg/mL
[6]
  MIC: 40 µg/mL (≈ 44.5 µM)

## Cc1cc(O)cc2c1C[C@@H]1C[C@@H](O)[C@]3(C)Oc4cc(O)cc(C)c4C[C@@H]3CC(C)(C)/C=C/C[C@@]1(C)C2 [RAMIFERIN]
Vero
  IC50: 9.7 µM
[7]
  Selectivity Index: 0.7
[8]
  MIC: 12.7 µM

## CC(C)[C@@H](C)/C=C/[C@@H](C)[C@H]1CC[C@@H]2[C@]1(C)CC[C@H]1[C@]23C=C[C@]2(C[C@@H](O)CC[C@]12C)OO3 [ERGOSTEROL PEROXIDE]
[4]; [19]
  MIC: 3.5 µM
[9]
  Selectivity Index: >57

## COC1=CC(=O)c2c(cc(OC)c(C(C)OC(C)=O)c2O)C1=O (configuration not stated)
Vero
  IC50: 0.33 µg/mL
[7]
  Selectivity Index: <1
[8]
  MIC: 0.39 µg/mL

## COc1cc([C@H]2O[C@@]3(c4cc(OC)c5c(c4)OCO5)O[C@@]3(C)[C@@H]2C)cc(OC)c1OC
[10]
  MIC: 30 µg/mL (≈ 69.7 µM)

## CC[C@H](C)[C@@H](NC(=O)[C@@H](CCC(=O)O)NC(=O)[C@H](Cc1cnc[nH]1)NC(=O)[C@H](CC(C)C)NC(=O)[C@H](N)Cc1ccccc1)C(=O)N[C@H]1CCCCNC1=O [CALPINACTAM]
[11]
  MIC: 12.5 µg/mL (≈ 16.3 µM)

## CCCC/C=C/C#CC#CCCCCCCCC(=O)O [EXOCARPIC ACID]
[12]
  MIC: 87 µg/mL (≈ 317 µM)
[13]
  MIC: 20 µg/mL (≈ 72.9 µM)
[8]
  MIC: 20 µg/mL

## COc1cc([C@H]2O[C@@]3(c4cc(OC)c5c(c4)OCO5)O[C@@]3(C)[C@@H]2C)cc2c1OCO2 [BEILSCHMIN D]
[10]
  MIC: 50 µg/mL (≈ 121 µM)

## COc1cc([C@H]2O[C@@H](c3cc(OC)c4c(c3)OCO4)[C@@H](C)[C@@H]2C)cc(OC)c1OC [BEILSCHMIN A]
[10]
  MIC: 2.5 µg/mL (≈ 6 µM)

## CC1COc2c(N3CCN(C)CC3)c(F)cc3c(=O)c(C(=O)O)cn1c23 (configuration not stated) [OFLOXACIN]
[1]
  MIC: 0.125 µg/mL (≈ 0.346 µM)
[2]
  MIC: 0.125 µg/mL (≈ 0.346 µM)

## Cc1cc(O)c2c(c1)C(=O)C=CC2=O [RAMENTACEONE]
[14]
  MIC: 0.5 µg/mL (≈ 2.66 µM)
[15]
  Selectivity Index: <8
[16]
  Selectivity Index: <8
[17]
  MIC: 0.5 µg/mL (≈ 2.66 µM)

## O=C1c2ccccc2-c2c3c(cc4ccnc1c24)OCO3 [LIRIODENINE]
[5]
  MIC: 12.5 µg/mL

## CCCOC(=O)[C@]12CC[C@@]3(C)CC[C@@](C)(O)C=C[C@H]3[C@@H]1CC[C@@H]2C(C)C
[1]
  MIC: 6.25 µg/mL (≈ 17.2 µM)
[2]
  MIC: 6.25 µg/mL (≈ 17.2 µM)

## C=CC(O)C#CC#CC(O)/C=C\CCCCCCCCOC(C)=O (configuration not stated)
[18]
  MIC: 1.4 µg/mL (≈ 4.21 µM)
[4]; [19]
  MIC: 25.3 µg/mL

## C=C[C@@]1(C)[C@H](Cl)C[C@@H]2C(C)(C)c3cccc4[nH]c5c(c34)[C@@]2(O)[C@]1(C#N)[C@@]1(CO1)C5(C)C [FISCHAMBIGUINE B]
Vero
  IC50: 128 µM
[4]; [19]
  MIC: 2 µM
[9]
  Selectivity Index: 64

## COc1cccc2c1C(=O)c1nccc3cc4c(c-2c13)OCO4 [OXOSTEPHANINE]
[5]
  MIC: 50 µg/mL

## COc1cc(O[C@@H]2O[C@H](CO)[C@@H](O)[C@H](O)[C@H]2O)c2c(O)c(C(C)=O)c(C)cc2c1
[5]
  MIC: 8.9 µM

## C#C[C@@]12O[C@]1(CO)[C@]1(C)CC[C@H]3C(C)(C)CCC[C@]3(C)[C@H]1CC2=O [ESCOBARINE B]
[1]
  MIC: 50 µg/mL (≈ 151 µM)
[2]
  MIC: 50 µg/mL (≈ 151 µM)
